# Reference: US10774080B2, “Pyrimidine compound as JAK kinase inhibitor” (THERAVANCE BIOPHARMA R&D IP, LLC, priority 2017, dated 2020)
# Legend:
# JAK1 = molecular target: T1, JAK1 (Homo sapiens, UniProt P23458); test: Biochemical JAK kinase assay (LanthaScreen), JAK1; details: converted from pIC50 by Cheng-Prusoff; ATP at Km 25 μM; read-out: JAK 1 (pKi) (converted)
# T1 construct: GST; purchased Life Technologies
# Description: (§1) Assay 1: Biochemical JAK and Tyk2 Kinase Assays A panel of four LanthaScreen JAK biochemical assays (JAK1, 2, 3 and Tyk2) were carried in a common kinase reaction buffer (50 mM HEPES, pH 7.5, 0.01% Brij-35, 10 mM MgCl2, and 1 mM EGTA). Recombinant GST-tagged JAK enzymes and a GFP-tagged STAT1 peptide substrate were obtained from Life Technologies. Serially or discretely diluted compounds were pre-incubated with each of the four JAK enzymes and the substrate in white 384-well microplates (Corning) at ambient temperature for 1 h. ATP was subsequently added to initiate the kinase reactions in 10 μL total volume, with 1% DMSO. […] The plates were allowed to incubate at ambient temperature for 1 h before being read on the EnVision reader (Perkin Elmer). Emission ratio signals (520 nm/495 nm) were recorded and utilized to calculate the percent inhibition values based on DMSO and background controls. For dose-response analysis, percent inhibition data were plotted vs. compound concentrations, and IC50 values were determined from a 4-parameter robust fit model with the Prism software (GraphPad Software). Results were expressed as pIC50 (negative logarithm of IC50) and subsequently converted to pKi (negative logarithm of dissociation constant, Ki) using the Cheng-Prusoff equation.
# JAK2 = molecular target: T2, JAK2 (Homo sapiens, UniProt O60674); test: Biochemical JAK kinase assay (LanthaScreen), JAK2; details: converted from pIC50 by Cheng-Prusoff; ATP at Km 3 μM; read-out: JAK 2 (pKi) (converted)
# T2 construct: GST; purchased Life Technologies
# Description: as §1
# [1] = tested on: IL-12 induced STAT4 phosphorylation in human CD3+ T cells; test: Assay 12: inhibition of IL-12-induced STAT4 phosphorylation in human CD3+ T cells; format: cell-based; details: T-cell, read-out: pIC50 for inhibition of IL-12 induced STAT4 phosphorylation (converted)
# Description: Assay 12: Inhibition of IL-12-Induced STAT4 Phosphorylation in Human CD3+ T Cells
# This cellular potency assay for JAK inhibition was carried out by measuring interleukin-12 (IL-12, R&D Systems) induced STAT4 phosphorylation in human CD3^+ T cells. The CD3 antibody (Becton Dickinson (BD) Biosciences) was conjugated to R-Phycoerythrin (R-PE). The pSTAT4 antibody (pTyr641, BD Biosciences) was conjugated with Alexa Fluor 647.
# Human peripheral blood mononuclear cells were cultured at 37° C. in a 5% CO2 humidified incubator in RPMI medium (Life Technologies) supplemented with 10% FBS (Life Technologies), 100 U/mL penicillin, 100 μg/mL streptomycin (Life Technologies), 2 mM GlutaMAX (Life Technologies), plate bound anti CD3 (5 μg/mL, UCHT1, BD Biosciences) and soluble anti-CD28 (1 μg/mL, CD28.2, BD Biosciences) for 3 days. Cells were then resuspended in RPMI medium (Life Technologies) supplemented with 10% FBS (Life Technologies), 100 U/mL penicillin, 100 μg/mL streptomycin (Life Technologies), 2 mM GlutaMAX (Life Technologies) and 10 ng/mL interleukin-2 (IL-2, R&D Systems) for an additional 3 days. […] For dose-response analysis, mean fluorescence intensity values were plotted vs. compound concentrations, and IC50 values were determined from a 4-parameter robust fit model with the Prism software.
# T2 sequence (O60674 whole entry): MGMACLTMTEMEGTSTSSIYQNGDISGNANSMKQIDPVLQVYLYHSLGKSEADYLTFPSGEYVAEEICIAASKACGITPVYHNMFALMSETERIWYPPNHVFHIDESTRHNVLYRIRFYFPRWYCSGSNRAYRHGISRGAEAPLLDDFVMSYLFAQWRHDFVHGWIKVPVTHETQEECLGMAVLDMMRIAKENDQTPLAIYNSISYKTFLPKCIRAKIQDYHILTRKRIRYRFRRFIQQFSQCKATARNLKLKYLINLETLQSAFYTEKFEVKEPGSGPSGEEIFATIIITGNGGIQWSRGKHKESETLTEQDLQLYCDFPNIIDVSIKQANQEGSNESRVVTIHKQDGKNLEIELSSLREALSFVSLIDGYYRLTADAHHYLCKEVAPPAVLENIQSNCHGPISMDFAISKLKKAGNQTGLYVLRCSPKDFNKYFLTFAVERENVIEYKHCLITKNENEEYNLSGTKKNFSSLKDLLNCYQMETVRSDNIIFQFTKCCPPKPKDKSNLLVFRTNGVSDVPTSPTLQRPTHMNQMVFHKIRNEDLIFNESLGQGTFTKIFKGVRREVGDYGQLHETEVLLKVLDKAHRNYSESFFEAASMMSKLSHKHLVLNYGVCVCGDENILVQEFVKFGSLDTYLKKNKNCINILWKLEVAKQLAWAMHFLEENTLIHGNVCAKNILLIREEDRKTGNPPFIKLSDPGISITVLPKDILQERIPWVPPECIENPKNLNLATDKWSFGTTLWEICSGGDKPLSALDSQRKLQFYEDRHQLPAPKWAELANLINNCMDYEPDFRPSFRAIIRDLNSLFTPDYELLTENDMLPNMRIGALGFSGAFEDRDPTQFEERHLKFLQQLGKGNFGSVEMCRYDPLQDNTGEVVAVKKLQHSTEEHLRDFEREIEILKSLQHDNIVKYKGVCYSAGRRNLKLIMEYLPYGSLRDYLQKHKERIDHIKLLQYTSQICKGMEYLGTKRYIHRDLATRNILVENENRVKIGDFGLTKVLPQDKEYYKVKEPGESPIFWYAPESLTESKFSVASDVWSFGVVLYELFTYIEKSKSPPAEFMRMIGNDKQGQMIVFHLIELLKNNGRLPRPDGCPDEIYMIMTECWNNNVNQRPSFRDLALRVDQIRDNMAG
# T1 sequence (P23458 whole entry): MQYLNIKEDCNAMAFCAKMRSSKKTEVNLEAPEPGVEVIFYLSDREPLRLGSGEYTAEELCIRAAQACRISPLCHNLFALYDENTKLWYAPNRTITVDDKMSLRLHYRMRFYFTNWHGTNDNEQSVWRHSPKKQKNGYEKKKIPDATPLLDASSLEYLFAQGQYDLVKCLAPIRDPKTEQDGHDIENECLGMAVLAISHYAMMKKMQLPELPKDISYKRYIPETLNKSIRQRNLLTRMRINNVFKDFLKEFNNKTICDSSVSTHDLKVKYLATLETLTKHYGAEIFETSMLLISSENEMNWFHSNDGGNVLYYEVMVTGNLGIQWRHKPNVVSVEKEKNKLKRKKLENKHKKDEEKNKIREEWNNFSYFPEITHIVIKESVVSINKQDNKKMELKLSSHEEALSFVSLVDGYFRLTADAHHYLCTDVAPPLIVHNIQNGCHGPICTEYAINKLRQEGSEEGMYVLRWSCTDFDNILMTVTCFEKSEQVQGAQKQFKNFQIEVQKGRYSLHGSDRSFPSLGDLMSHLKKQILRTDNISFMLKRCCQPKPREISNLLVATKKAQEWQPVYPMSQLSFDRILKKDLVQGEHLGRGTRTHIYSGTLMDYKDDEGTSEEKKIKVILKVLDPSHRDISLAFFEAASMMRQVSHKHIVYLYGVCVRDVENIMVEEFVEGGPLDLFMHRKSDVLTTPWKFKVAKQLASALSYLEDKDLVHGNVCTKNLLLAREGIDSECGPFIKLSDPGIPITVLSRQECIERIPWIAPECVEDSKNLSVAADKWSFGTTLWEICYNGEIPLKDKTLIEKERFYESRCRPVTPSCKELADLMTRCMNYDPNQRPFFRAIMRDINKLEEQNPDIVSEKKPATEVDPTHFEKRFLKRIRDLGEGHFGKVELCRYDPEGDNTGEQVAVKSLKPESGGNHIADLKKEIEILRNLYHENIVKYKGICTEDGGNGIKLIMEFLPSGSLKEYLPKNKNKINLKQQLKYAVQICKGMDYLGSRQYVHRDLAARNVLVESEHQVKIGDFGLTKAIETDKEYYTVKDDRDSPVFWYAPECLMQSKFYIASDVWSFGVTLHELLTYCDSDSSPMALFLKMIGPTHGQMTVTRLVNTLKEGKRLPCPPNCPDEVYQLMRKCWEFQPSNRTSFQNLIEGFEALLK
compound,measurement,setting,value
"CCS(=O)(=O)N1[C@@H]2CCC[C@H]1C[C@H](N(C)c1nc(CO)c(F)c(Nc3cc(C)[nH]n3)n1)C2 [Compound (I), (2-(((1R,3s,5S)-9-(ethylsulfonyl)-9-azabicyclo[3.3.1]nonan-3-yl)(methyl)amino)-5-fluoro-6-((5-methyl-1H-pyrazol-3-yl)amino)pyrimidin-4-yl)methanol]",Ki,JAK1,0.0631 nM
same,Ki,JAK2,0.0631 nM
same,IC50,[1],63.1 nM
